This is an account of results in publication PMC6150413 (Molecules : A Journal of Synthetic Chemistry and Natural …, 2017).

The subject of one series is S. aureus. Conditions: cited from earlier work.
The test system of a further series is P. aeruginosa. Conditions: cited from earlier work.
In a further series the test system is E. coli. The following applies: cited from earlier work.
Details of series [1]: method as in PMID 9038346. The following applies: salt from 50 to 125 mmol/L; cited from earlier work.
The next series concerns S. aureus ATCC 25923. Conditions: ATCC 25923, 2 h. Here is the method: (§1) The antimicrobial activities of VIP and its analogues were tested against S. aureus ATCC 25923 and E. coli ATCC 25922 according to the method reported by Wani et al. with slight modification. The final peptide concentrations ranged from 0.5 to 256 μM. The tests were performed in triplicate using 4 replicates for each experiment. In addition, S. aureus ATCC 25923 and E. coli ATCC 25922 (2 × 10^6 CFU/mL) were treated with natural VIP and VIP8 at MIC for 2 h. […] The haemolytic activity of VIP and VIP derivatives were measured using porcine erythrocytes according to previous method. MTT (3-[4,5 dimethylthiozol-2-yl]-2,5-diphenyltetrazolium bromide) was used to determine the cytotoxicity of VIP and its analogue on porcine intestinal epithelial cells IPEC-J2. Stable experiments were conducted with reference to the literature with slightly changes. First, the pH of the mediums was adjusted to acidic (pH 4.0, pH 5.0, and pH 6.0) and basic (pH 8.0, pH 9.0, and pH 10.0) conditions. To investigate the effects of ion strength, the bacterial mediums were supplemented with different concentrations of NaCl (20 mM, 60 mM, and 180 mM) or MgCl2 (1 mM, 25 mM, and 50 mM). Then, bacteria were incubated with VIP, VIP analogues 2 and 8, respectively. After 3 h of incubation, bacterial viability was measured with a Synergy HT multimode reader (BioTek, Winooski, VT, USA) at 600 nm.
(§2) Both the agar diffusion test and modified broth microdilution method were used to evaluate the antimicrobial activity of recombinant expressed VIP8. For the Oxford cup agar diffusion, the sample was added to an Oxford cup, which was then placed on a Mueller-Hinton agar plate containing 1 × 10^5 colony-forming units of S. aureus […]. Chemically-synthesized VIP8 and ampicillin were used as the positive control. The minimal inhibition concentration was determined by the method reported by Wani et al..

The subject of another series is E. coli ATCC 25922. The following applies: ATCC 25922, 2 h. The method, then: as §1, §2

Ends that are not written are not given here. Peptide text beside a SMILES is read from it.

For “human β-defensin 4 (EFELDRICGYGTARCRKKCRSQEYRIGRCPNTYACCLRKWDESLLNRTKP; ends and bridges not checked; cysteine pairing not given here; UniProt Q8WTQ1 23-72, looked up) [hBD-4, human β-defensin quoted from the literature]”, the “Antimicrobial activity at high concentrations of NaCl” value with S. aureus, in the series with P. aeruginosa and in the series on E. coli was “attenuated” in each case.

With “human β-defensin 1 (DHYNCVSSGGQCLYSACPIFTKIQGTCYRGKAKCCK; ends and bridges not checked; cysteine pairing not given here; UniProt P60022 33-68, looked up) [hBD-1, human β-defensin quoted from the literature]”, in series [1], the “Activity remaining at raised salt concentration” value is given as 12%.

For the compound `CC[C@H](C)[C@H](NC(=O)[C@H](C)NC(=O)[C@H](C)NC(=O)[C@H](CC(C)C)NC(=O)[C@H](Cc1ccc(O)cc1)NC(=O)[C@H](CCCNC(=N)N)NC(=O)[C@H](CCCNC(=N)N)NC(=O)[C@@H](NC(=O)[C@H](C)NC(=O)[C@H](CC(C)C)NC(=O)[C@H](CCC(N)=O)NC(=O)[C@H](CCCNC(=N)N)NC(=O)[C@H](CCCNC(=N)N)NC(=O)[C@H](CC(C)C)NC(=O)[C@H](CCCNC(=N)N)NC(=O)[C@@H](NC(=O)[C@H](Cc1ccc(O)cc1)NC(=O)[C@H](CC(N)=O)NC(=O)[C@H](C)NC(=O)[C@@H](NC(=O)[C@@H](N)Cc1ccccc1)[C@@H](C)O)[C@@H](C)O)C(C)C)C(=O)N[C@@H](CC(C)C)C(=O)NCC(=O)N[C@@H](CCCNC(=N)N)C(=O)N[C@@H](CCCNC(=N)N)C(=O)O` [VIP8] (H-FTANYTRLRRQLAVRRYLAAILGRR-OH), in the series with 3T3-L1 cells, the “Cytotoxicity (in words)” value was “no cytotoxicity”. Further, in the series with S. aureus ATCC 25923, the “MBC (minimum bactericidal concentration)” value was determined as 4 µM and the “MIC (minimum inhibitory concentration)” value was 2 µM. In the series with E. coli ATCC 25922, the “MBC (minimum bactericidal concentration)” value is 4 µM and the “MIC (minimum inhibitory concentration)” value was 2 µM.
